# Measurements from patent publication US4157391A, “Cholesterol derivative-based medicaments acting on bio-protective mechanisms” (The Green Cross Corporation, priority 1977, dated 1979).
# Legend:
# PHA reaction = PHA reaction 50% inhibition (PHA method by Cooperband et al.), immunoregulatory action in vitro; assay type: cell-based; conditions: read-out: PHA reaction 50% inhibition concentration
# Source text: The PHA reaction 50% inhibition concentration of the compounds of the general formula (I) were examined by using the PHA method by Cooperband, S. R., et al., (The Journal of Immunology, 109, (1), 154, (1972)). For sake of comparison, the effect of IRA obtained according to the Occhino et al., method (The Journal of Immunology, 110, (3), 685, (1973)) was also shown.
# rats = experiment: Acute toxicity test in rats; assay type: in vivo; conditions: intra-abdominal, 500, 1,000, 1,500 and 2,000 mg/kg, 5-day observation
# Protocol: An acute toxicity test of 7-hydroxycholesterol and 7-ketocholesterol was conducted on one group of rats (5 rats) with average body weight of about 200 gr. Each compound was suspended in a physiological solution of sodium chloride and made into a uniform suspension by a supersonic treatment, and then such suspension was administered intro-abdominally to each rat at the doses of 500 mg/kg, 1,000 mg/kg, 1,500 mg/kg and 2,000 mg/kg, respectively.
# [1] = test system: edemata grown on the mice legs (carrageenin); experiment: Antiphlogistic action: carrageenin edema of hind legs in mice; assay type: in vivo
# Protocol: 20 Mice were divided into four groups of five and the mice of two test groups were administered intra-abdominally with 7-hydroxycholesterol and 7-ketocholesterol, respectively, with the dose of 200 mg/kg (physiologically isotonic 2.0 weight % aqueous solution), and 1 hour later, 0.05 ml of 1% carrageenin was administered as a phlogogenic agent subcutaneously to the hind legs of these mice.
# The sizes of the edemata grown on the mice legs with time after carrageenin administration were measured by a volume differential meter and compared with those of the control mice to which an isotonic sodium chloride solution was administered.
# The test results are shown in the graph of FIG. 1 of the accompanying drawing. In the graph, percent of growth of edema is given on the vertical Y-axis and time (hour) after carrageenin administration is given on the horizontal X-axis. The numerals for the respective curves represent the respective specimens used in the test, that is, 1 represents isotonic sodium chloride solution, 2 cholesterol, 3 7-ketocholesterol, and 4 7-hydroxycholesterol.
Compound,IC50 (PHA reaction) [µg/mL],death in acute toxicity test (rats),"growth of edema ([1]; 200 mg/kg intra-abdominally, five hours after carrageenin, control 82% in four hours)","growth of edema ([1]; 200 mg/kg intra-abdominally, time not separately stated, control 82% in four hours)","growth of edema ([1]; four hours after carrageenin, cholesterol group (reference data), control 82%) [%]"
CC(C)CCC[C@@H](C)[C@H]1CC[C@H]2[C@@H]3C(O)C=C4C[C@@H](O)CC[C@]4(C)[C@H]3CC[C@]12C (stereo partly shown) [7-hydroxycholesterol],5,No death,about 40%,–,–
CC(C)CCC[C@@H](C)[C@H]1CC[C@H]2[C@@H]3C(=O)C=C4C[C@@H](O)CC[C@]4(C)[C@H]3CC[C@]12C [7-ketocholesterol],8,No death,–,about 50%,–
CC(C)CCC[C@@H](C)[C@H]1CC[C@H]2[C@@H]3CC=C4C[C@@H](O)CC[C@]4(C)[C@H]3CC[C@]12C [cholesterol],–,–,–,–,70
